Data as given in PubChem BioAssay (NCI).
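96-well plates; 48 h exposure; 5 concentrations. Endpoints by linear interpolation between flanking doses. Not reached: highest tested concentration assigned. TGI denotes the concentration required for complete inhibition of growth.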

Columns and labels:
Assay in all cases: NCI tumour cell line growth inhibition, 48 h
SK-MEL-5 melanoma = tested on: SK-MEL-5 melanoma
DU-145 prostate = tested on: DU-145 prostate
MDA-N = tested on: MDA-N
OVCAR-3 ovarian = tested on: OVCAR-3 ovarian
CAKI-1 renal = tested on: CAKI-1 renal
HOP-62 NSCLC = tested on: HOP-62 NSCLC
NCI-H460 lung = tested on: NCI-H460 lung
SNB-75 CNS = tested on: SNB-75 CNS
SNB-19 CNS = tested on: SNB-19 CNS
SK-MEL-28 melanoma = tested on: SK-MEL-28 melanoma

Compound	TGI (SK-MEL-5 melanoma) [µM]	TGI (DU-145 prostate) [µM]	TGI (MDA-N) [µM]	TGI (OVCAR-3 ovarian) [µM]	TGI (CAKI-1 renal) [µM]	TGI (HOP-62 NSCLC) [µM]	TGI (NCI-H460 lung) [µM]	TGI (SNB-75 CNS) [µM]	TGI (SNB-19 CNS) [µM]	TGI (SK-MEL-28 melanoma) [µM]
CC1(C)CC(=O)C(=CN2C(=O)CNC2=S)C(=O)C1	> 100	> 100	> 100	> 100	> 100	> 100	> 100	> 100	> 100	
O=S(=O)(/N=C1/SC(=Nc2ccccc2)N(c2ccccc2)/C1=N/S(=O)(=O)c1ccccc1)c1ccccc1	31.3		34.4			80.4	51.6	62.1	96.8	34
CC(=O)[C@H]1CCC2[C@@H]3CC=C4C(O)C(OS(=O)(=O)O)CC[C@]4(C)C3CC[C@@]21C (stereo not given in full)	> 100			> 100	> 100	> 100	> 100	> 100	> 100	> 100
C=C(C(=O)OC)[C@H]1CC/C(C)=C/CC/C(C)=C/CC[C@@]2(C)O[C@@H]2C1	22	58.2	36.4	34.4	28.1	42.5		> 100	> 100	> 100
CCOC(=O)C[n+]1ccc2c([nH]c3cc(OC)ccc32)c1C	> 100			> 100	> 100	> 100	> 100	> 100	> 100	> 100
O=C(NCCCCNCCCNC(=O)OCc1ccccc1)OCc1ccccc1	32.5	> 100		> 100		> 100	69	89.4	> 100	40
CC1(C)CC2(C)OC(=N)C1(C#N)C2(C#N)C#N (stereo not given)	21	27.7	20.2		12.3				31	
c1ccc(CNc2ncnc3n[nH]nc23)cc1	> 100	> 100	> 100	> 100	> 100	> 100		> 100	> 100	> 100
COc1cc(S(=O)(=O)N/N=C/c2cc(Br)c(O)c(OC)c2)c(OC)cc1NC(C)=O	> 100	> 100	> 100	> 100	> 100	> 100		> 100	> 100	> 100
O=S(=O)(O)c1ccc(Nc2ccnc3cc(Cl)ccc23)cc1	> 100	> 100	> 100	> 100	> 100	> 100		> 100	> 100	> 100
O=c1c(-c2ccc(O)cc2)coc2cc(O)cc(O)c12	> 100	> 100	> 100				> 100		> 100	> 100
COc1cccc(C2CC(=O)c3cccn32)c1 (stereo not given)		> 100		> 100	> 100	> 100		> 100	> 100	> 100
COc1ccccc1N1C(=O)/C(=C\c2cccc(Oc3ccccc3)c2)S(=O)(=O)C1c1ccccc1 (stereo not given)	53.7	> 100	> 100	> 100	> 100	> 100	> 100		> 100	> 100
CCOC(=O)c1c(-c2ccc(OC)c(O)c2)c(C#N)c(=S)n(C2OC(CO)C(O)C(O)C2O)c1-c1ccccc1 (stereo not given)	> 100	> 100	> 100		> 100	> 100	> 100		> 100	> 100
Cc1cc(C)c2c(c1)CC1(Cc3c(C)cc(C)cc3C1=O)C2=O (stereo not given)	> 100	> 100	> 100	> 100	> 100		> 100	> 100	> 100	> 100
O=C1OC2C=CC1C1(CCOC1=O)C2 (stereo not given)	> 100			> 100	> 100	> 100	> 100	> 100	> 100	> 100
C[n+]1c(-c2ccc(/C=N/Nc3ccnc(N/N=C/c4ccc(-c5cn6ccccc6[n+]5C)cc4)n3)cc2)cn2ccccc21	> 100		> 100			> 100	> 100	> 100	> 100	95.8
Oc1ccc2ccccc2c1OCc1nnc(CCCCCCCCc2nnc(COc3c(O)ccc4ccccc34)o2)o1	> 100	> 100	> 100		> 100		> 100	> 100	> 100	> 100
Cn1c(=O)c2sc3cc4c(cc3c2c2ccccc21)sc1c(=O)n(C)c2ccccc2c14	> 100	> 100	> 100	> 100	> 100	42.3	> 100	93.6		> 100
CN(CCN(C)C(=O)CCn1ccc(=O)[nH]c1=O)C(=O)CCn1ccc(=O)[nH]c1=O	> 100			> 100		> 100	> 100	> 100	> 100	> 100
O=C(O)CCCc1ccc2c(c1)CC1(C2)Cc2ccc(CCCC(=O)O)cc2C1	> 100		> 100	> 100		> 100				
CCCCCCc1cn([C@H]2C[C@H](O)[C@@H](CO)O2)c(=O)[nH]c1=O	> 100			> 100	> 100		> 100	> 100	> 100	> 100
CC1(C)Oc2ccc3c(=O)c4ccccc4oc3c2C1C(=O)O (stereo not given)	> 100	> 100	> 100	> 100	> 100	> 100				
O=C(C=P(c1ccccc1)(c1ccccc1)c1ccccc1)c1ccc(-c2ccc(F)cc2F)cc1	3.55	16.2	8.8	5.19	5.55	15.5	4.09		20.6	8.14
